Experimental data: patent publication US6632981B1, “DNA sequences encoding polypeptides having beta-1,3-glucanase activity” (Novartis Finance Corporation, priority 1988, dated 2003)

Tests used:
chimeric PR-1a/GUS gene [1] = assay: Chemical induction of chimeric PR-1a/GUS gene in transgenic tobacco plants, β-glucuronidase assay of leaf extracts; format: in vivo, Nicotiana tabacum
Method: A. Gene expression is induced in plants obtained according to previously described procedures by applying a fine spray of a solution of 0.1 to 50 mM salicylic acid which has been adjusted to a pH between 6.0 and 8.0 with NaOH, to the leaves using a plant mister.
The plants are allowed to continue to grow for two days and are then harvested, frozen in liquid nitrogen and stored at −80° C. until they are assayed as described in Example 65 and/or Example 66.
B. Alternatively, the following solutions are used for induction:
(3) Methyl benzo-1,2,3-thiadiazole-7-carboxylate. The solution is made by resuspending a wettable powder containing the chemical in sterile water for several minutes at a concentration of 1 mg/ml. Insoluble solid is removed from the solution by filter sterilizing.
Frozen leaf tissue is ground in a mortar with a pestle in the presence of liquid nitrogen to produce a fine powder. Leaf extracts are prepared by mixing a given weight (g) with an equal volume (ml) of GUS extraction buffer (50 mM sodium phosphate buffer pH 7.0, 0.1% Triton-X 100, 0.1% sarkosyl, 10 mM β-mercaptoethanol) as described by Jefferson, R. A. et al., Proc. Natl. Acad. Sci. USA 83: 8447-8451 (1986).
(§1) The reactions are carried out in the wells of ELISA plates by mixing 5-25 l extract with 120-100 l GUS assay buffer (50 mM sodium phosphate buffer pH 7.0, 0.1% Triton X-100, 10 mM β-mercaptoethanol) containing 4-methyl umbelliferyl glucuronide (MU) at a final concentration of 2 mM in a total volume of 125 l. The plate is incubated at 37° C. for 1-5 hours and the reaction is stopped by the addition of 150 l 3 M Na2CO3. The concentration of fluorescent indicator released is determined by reading the plate on a Flow Labs Fluoroskan II ELISA plate reader.

endogenous PR-1a gene = assay: Assay for chemical induction of the endogenous PR-1a gene (mRNA, primer extension); format: in vivo; details: tobacco plant materials, control procedure
Method: 50 g of total RNA is lyophilized in a 500 l Eppendorf tube. The RNA is resuspended in 30 l of radiolabeled probe solution and heated to 70′ C. for 10 minutes. The tube is slowly cooled to 37° C. and allowed to incubate overnight. Without removing the tube from the 37° C. water bath, 2 l of 10×reverse-transcriptase buffer (500 mM Tris-HCl, pH 7.5, 400 mM KCl, 30 mM MgCl2), 1 l 5 mg/ml bovine serum albumin, 5 l 100 mM dithiothreitol, 5 l 10×dNTPs (10 mM of each dNTP in H2O), 3 l H 20, 2 l RNasin (80 units), and 2 l reverse transcriptase (400 units) are added and the reaction is incubated at 37° C. for 30 minutes. To stop the reaction, 5 l of 3 M sodium acetate, pH 5, and 150 l absolute ethanol are added. The tube is left at −20° C. for 30 minutes, the precipitate is collected by centrifugation, washed with 80% ethanol and allowed to air-dry. The precipitate is resuspended in 10-20 l of loading dye (90% formamide, 0.05% bromophenol blue, 0.05% xylene cyanol, 1 mM EDTA) and the extension products are separated on a 6% sequencing gel (Maniatis, T. et al., supra). Extension products are visualized by autoradiography.
As a control procedure, tobacco plant materials induced as described in Examples 139-141 by salicylic acid, methyl benzo-1,2,3-thiadiazole-7-carboxylate and TMV are assayed for transcription of mRNA from the endogenous PR-1a gene by the methods described in Example 6.

chimeric PR-1a/GUS gene [2] = assay: GUS induction in transformed carrot callus; format: cell-based; details: carrot callus transformed by pCIB271; 50 mM sodium salicylate or 250 g/l methyl ester spray; 21 hours; H2O spray 5.2
Method: To surface sterilize the carrots they are peeled and then soaked 20 minutes in a 10% solution of chlorox. The carrots are rinsed with sterile water, sliced into 5 mm pieces and placed basal side up onto water agar. 20-50 l of bacteria are then applied to the upper surface of the discs. After 7 days the discs are transferred to 0.7% agar containing MS salts, 3% sucrose, 0.1 mg/l 2,4-D, […] kanamycin, 100 µg/ml carbenicillin, and 100 µg/ml mefoxin. Callus forming around the cambial ring is excised and placed on 0.7% MS agar supplemented with 3% sucrose, 0.1 mg/l 2,4-D, […] kanamycin, 100 µg/ml carbenicillin, and 100 µg/ml mefoxin. After the callus has been grown it is cut into small pieces and randomized onto four plates of the same media. […]
as §1, with “The plate is incubated at 37° C. for 1-5 hours and the reaction is stopped by the addition of 150 l 3 M Na2CO3.” left out

[3] = tobacco plant Alu 1 (CIB272), water 5.6, buffer 20.5
[4] = tobacco plant Alu 2 (CIB272), water 2.0, buffer 8.9
[5] = tobacco plant Alu 3 (CIB272), water 0.1, buffer 2.0
[6] = tobacco plant Alu 4 (CIB272), water 2.1, buffer 6.1
[7] = tobacco plant Alu 5 (CIB272), water 0.6, buffer 0.5
[8] = tobacco plant Alu 6 (CIB272), water 0.8, buffer 3.1
[9] = tobacco plant Alu 7 (CIB272), water 1.7, buffer 21.7
[10] = tobacco plant Alu 8 (CIB272), water 0.6, buffer 0.6
[11] = tobacco plant Alu 9 (CIB272), water 0.9, buffer 0.3
[12] = tobacco plant Alu 10 (CIB272), water 4.0, buffer 8.1
[13] = tobacco plant Alu 11 (CIB272), water 1.6, buffer 2.2
[14] = tobacco plant Alu 12 (CIB272), water 0.7, buffer 2.3
[15] = tobacco plant Alu 13 (CIB272), water 0.1, buffer 1.9
[16] = tobacco plant H 1 (CIB271), water 5.39, buffer 20.1
[17] = tobacco plant H 3 (CIB271), water 0.21, buffer 1.66
[18] = tobacco plant H 4 (CIB271), water 8.39, buffer 2.28
[19] = tobacco plant H 6 (CIB271), water 0.10, buffer 0.09
[20] = tobacco plant H 9 (CIB271), water 0.23, buffer 0.5
[21] = tobacco plant Hae 1 (CIB273), water 0.6, buffer 1.7
[22] = tobacco plant Hae 2 (CIB273), water 2.3, buffer 0.4
[23] = tobacco plant Hae 3 (CIB273), water 1.7, buffer 3.0
[24] = tobacco plant Hae 4 (CIB273), water 2.0, buffer 1.7
[25] = tobacco plant Hae 5 (CIB273), water 18.1, buffer 36.6
[26] = tobacco plant Hae 8 (CIB273), water 0.4, buffer 0.6
[27] = tobacco plant Hae 9 (CIB273), water 2.6, buffer 12.5
[28] = tobacco plant Hae 10 (CIB273), water 1.6, buffer 13.5
[29] = tobacco plant Hae 11 (CIB273), water 2.6, buffer 3.9
[30] = tobacco plant Hae 12 (CIB273), water 0.2, buffer 0.6
[31] = tobacco plant Hae 13 (CIB273), water 0.01, buffer nd
[32] = tobacco plant Hae 14 (CIB273), water 0.1, buffer 0.1
[33] = tobacco plant Hae 15 (CIB273), water 0.1, buffer 3.4
[34] = tobacco plant Hae 16 (CIB273), water 0.1, buffer 0.8

Row | Structure (SMILES) | Specific Activity nKat MU/mg protein (chimeric PR-1a/GUS gene [1]; [3]) [nKat MU/mg protein] | Specific Activity nKat MU/mg protein (chimeric PR-1a/GUS gene [1]; [4]) [nKat MU/mg protein] | Specific Activity nKat MU/mg protein (chimeric PR-1a/GUS gene [1]; [5]) | Specific Activity nKat MU/mg protein (chimeric PR-1a/GUS gene [1]; [6]) [nKat MU/mg protein] | Specific Activity nKat MU/mg protein (chimeric PR-1a/GUS gene [1]; [7]) | Specific Activity nKat MU/mg protein (chimeric PR-1a/GUS gene [1]; [8]) [nKat MU/mg protein] | Specific Activity nKat MU/mg protein (chimeric PR-1a/GUS gene [1]; [9]) [nKat MU/mg protein] | Specific Activity nKat MU/mg protein (chimeric PR-1a/GUS gene [1]; [10]) [nKat MU/mg protein] | Specific Activity nKat MU/mg protein (chimeric PR-1a/GUS gene [1]; [11]) [nKat MU/mg protein] | Specific Activity nKat MU/mg protein (chimeric PR-1a/GUS gene [1]; [12]) [nKat MU/mg protein] | Specific Activity nKat MU/mg protein (chimeric PR-1a/GUS gene [1]; [13]) | Specific Activity nKat MU/mg protein (chimeric PR-1a/GUS gene [1]; [14]) [nKat MU/mg protein] | Specific Activity nKat MU/mg protein (chimeric PR-1a/GUS gene [1]; [15]) [nKat MU/mg protein] | Specific Activity nKat MU/mg protein (chimeric PR-1a/GUS gene [1]; [16]) [nKat MU/mg protein] | Specific Activity nKat MU/mg protein (chimeric PR-1a/GUS gene [1]; [17]) [nKat MU/mg protein] | Specific Activity nKat MU/mg protein (chimeric PR-1a/GUS gene [1]; [18]) [nKat MU/mg protein] | Specific Activity nKat MU/mg protein (chimeric PR-1a/GUS gene [1]; [19]) | Specific Activity nKat MU/mg protein (chimeric PR-1a/GUS gene [1]; [20]) [nKat MU/mg protein] | Specific Activity nKat MU/mg protein (chimeric PR-1a/GUS gene [1]; [21]) [nKat MU/mg protein] | Specific Activity nKat MU/mg protein (chimeric PR-1a/GUS gene [1]; [22]) [nKat MU/mg protein] | other results
1 | COC(=O)c1cccc2nnsc12 [Methyl benzo-1,2,3-thiadiazole-7-carboxylate] | 206.9 | 83.2 | 2.0 ± .9 nKat MU/mg protein | 7.1 ± 2.6 | 1.2 ± .6 nKat MU/mg protein | 67.0 | 29.1 | 0.4 | 0.4 | 52.0 | 2.8 ± 1.3 nKat MU/mg protein | 73.4 | 13.2 | 13.5 ± 0.8 | 11.95 ± 0.85 | 18.52 ± 1.07 | 2.58 ± .01 nKat MU/mg protein | 9.1 | 2.6 | 11.8 | Specific Activity nKat MU/mg protein (chimeric PR-1a/GUS gene [1]; [23]): 11.2 nKat MU/mg protein; Specific Activity nKat MU/mg protein (chimeric PR-1a/GUS gene [1]; [24]): 10.8 nKat MU/mg protein; Specific Activity nKat MU/mg protein (chimeric PR-1a/GUS gene [1]; [25]): 132.5 nKat MU/mg protein; Specific Activity nKat MU/mg protein (chimeric PR-1a/GUS gene [1]; [26]): 28.9 nKat MU/mg protein; Specific Activity nKat MU/mg protein (chimeric PR-1a/GUS gene [1]; [27]): 129.7 nKat MU/mg protein; Specific Activity nKat MU/mg protein (chimeric PR-1a/GUS gene [1]; [28]): 98.2 nKat MU/mg protein; Specific Activity nKat MU/mg protein (chimeric PR-1a/GUS gene [1]; [29]): 58.5 nKat MU/mg protein; Specific Activity nKat MU/mg protein (chimeric PR-1a/GUS gene [1]; [30]): 5.8 nKat MU/mg protein; Specific Activity nKat MU/mg protein (chimeric PR-1a/GUS gene [1]; [31]): 0.1 nKat MU/mg protein; Specific Activity nKat MU/mg protein (chimeric PR-1a/GUS gene [1]; [32]): 8.6 nKat MU/mg protein; Specific Activity nKat MU/mg protein (chimeric PR-1a/GUS gene [1]; [33]): 7.2 nKat MU/mg protein; Specific Activity nKat MU/mg protein (chimeric PR-1a/GUS gene [1]; [34]): 4.3 nKat MU/mg protein; transcription of mRNA from the endogenous PR-1a gene (endogenous PR-1a gene): Elevated levels of mRNA; GUS activities (chimeric PR-1a/GUS gene [2]): 22.1 pKat MU/mg protein
2 | O=C(O)c1ccccc1O [Salicylic acid, salicylic acid] | 20.0 | 6.6 | 2.8 ± .9 nKat MU/mg protein | 43.0 ± 19 | 4.4 ± 2.3 nKat MU/mg protein | 28.8 | 38.7 | 0.4 | 0.6 | 39.2 | 1.9 ± .9 nKat MU/mg protein | 57.1 ± 22 | 19.1 | 13.9 ± 1.2 | 6.92 ± 0.88 | 27.5 ± 0.7 | 4.08 ± 0.58 nKat MU/mg protein | 10.8 | 1.6 | 8.8 | Specific Activity nKat MU/mg protein (chimeric PR-1a/GUS gene [1]; [23]): 11.1 nKat MU/mg protein; Specific Activity nKat MU/mg protein (chimeric PR-1a/GUS gene [1]; [24]): 8.1 nKat MU/mg protein; Specific Activity nKat MU/mg protein (chimeric PR-1a/GUS gene [1]; [25]): 59.4 nKat MU/mg protein; Specific Activity nKat MU/mg protein (chimeric PR-1a/GUS gene [1]; [26]): 30.6 nKat MU/mg protein; Specific Activity nKat MU/mg protein (chimeric PR-1a/GUS gene [1]; [27]): 63.9 nKat MU/mg protein; Specific Activity nKat MU/mg protein (chimeric PR-1a/GUS gene [1]; [28]): 70.5 nKat MU/mg protein; Specific Activity nKat MU/mg protein (chimeric PR-1a/GUS gene [1]; [29]): 81.8 nKat MU/mg protein; Specific Activity nKat MU/mg protein (chimeric PR-1a/GUS gene [1]; [30]): 2.5 nKat MU/mg protein; Specific Activity nKat MU/mg protein (chimeric PR-1a/GUS gene [1]; [31]): 0.7 nKat MU/mg protein; Specific Activity nKat MU/mg protein (chimeric PR-1a/GUS gene [1]; [32]): 1.8 nKat MU/mg protein; Specific Activity nKat MU/mg protein (chimeric PR-1a/GUS gene [1]; [33]): 6.4 nKat MU/mg protein; Specific Activity nKat MU/mg protein (chimeric PR-1a/GUS gene [1]; [34]): 2.3 nKat MU/mg protein; transcription of mRNA from the endogenous PR-1a gene (endogenous PR-1a gene): Elevated levels of mRNA; GUS activities (chimeric PR-1a/GUS gene [2]): 11.6 pKat MU/mg protein
